Target: T1, Recombinant CETP enzyme (Homo sapiens, UniProt P11597)
T1 construct: purchased Cardiovascular Targets
T1 sequence (P11597 18-493): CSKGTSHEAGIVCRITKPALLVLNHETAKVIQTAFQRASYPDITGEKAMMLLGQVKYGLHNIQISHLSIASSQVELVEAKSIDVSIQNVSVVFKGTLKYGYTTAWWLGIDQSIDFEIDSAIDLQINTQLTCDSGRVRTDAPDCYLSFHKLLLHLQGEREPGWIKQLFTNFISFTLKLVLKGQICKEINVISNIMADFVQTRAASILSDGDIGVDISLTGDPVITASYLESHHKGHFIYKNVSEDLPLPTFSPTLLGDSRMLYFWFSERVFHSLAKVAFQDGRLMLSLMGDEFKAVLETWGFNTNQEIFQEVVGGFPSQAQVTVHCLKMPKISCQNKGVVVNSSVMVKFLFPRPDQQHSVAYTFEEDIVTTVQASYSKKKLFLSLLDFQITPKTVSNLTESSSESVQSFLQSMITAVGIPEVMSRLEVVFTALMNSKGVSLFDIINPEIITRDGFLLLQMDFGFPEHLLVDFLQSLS
Assay: In vitro fluorescence-based CETP inhibition assay (BODIPY-CE transfer from donor to acceptor microemulsions)
Assay type: biochemical
Settings: recombinant CETP 0.14 ng/μl; transfer of fluorescent cholesteryl ester monitored over 2 hours; compared to DMSO controls
Description: An in vitro fluorescence-based assay to identify CETP inhibitors was developed from modifications of the protocols outlined in Bisgaier et al., J Lipid Res., 34(9): 1625-34 (1993) and Epps et al., Chem Phys Lipids., 77(1): 51-63 (1995). Acceptor and donor lipid microemulsions were prepared according to Bisgaier et al., 1993, except that the buffer was prepared with 0.67 ug/ml human HDL (Calbiochem). Donor microemulsions contained the fluorescent cholesteryl ester analog BODIPY-CE (Molecular Probes), characterized by excitation and emission maxima at 503 nm and 518 nm, respectively. The CETP-mediated transfer of fluorescent cholesteryl ester to acceptor particles was monitored over a 2-hour time period using the FAM filter set (excitation 492 nm, emission 516 nm) in an MX3000P fluorescent plate reader (Stratagene). Recombinant CETP enzyme (Cardiovascular Targets) was used at 0.14 ng/μl, final concentration, to achieve lipid transfer. CETP inhibition by compounds was compared to DMSO controls and graphed as a percentage of the control CETP activity over 2 hours. The IC50 curves for CETP inhibition were generated from the activity profiles. Active compounds were also tested for CETP inhibition as above, but in the presence of 3% human serum albumin, fraction V (Calbiochem).
Using this protocol, IC50 data for CETP inhibition were obtained.

IC50: 4.6 µM
Structure (SMILES): CCOC(=O)N1c2c(c(C)nn2C)C(N(Cc2cc(C(F)(F)F)cc(C(F)(F)F)c2)C(=O)OC)CC1CC (stereo not shown) [Example E1, 4-[(3,5-Bis-trifluoromethyl-benzyl)-methoxycarbonyl-amino]-6-ethyl-1,3-dimethyl-1,4,5,6-tetrahydro-pyrazolo[3,4-b]pyridine-7-carboxylic acid ethyl ester]
